In PMC11855212 (2025):

How the values were obtained:
[1] = tested on: RB IM (RB promoter i-motif) (DNA, i motif) GCCGCCCAAAACCCCCCG; experiment: SPR; settings: 100 mM K+; 20 mM MES, pH 5.5, 25 °C
[2] = tested on: RB promoter i-motif, 5'-FAM (DNA, i motif) GCCGCCCAAAACCCCCCG; experiment: MST; settings: 100 mM K+; 20 mM MES, pH 5.5, 25 °C
[3] = tested on: RB promoter G-quadruplex, 5'-FAM (DNA, G4) CGGGGGGTTTTGGGCGGC; experiment: MST; settings: 100 mM K+; 50 mM Tris-HCl, pH 7.4, 25 °C
[4] = tested on: hairpin (DNA, hairpin) CGCGCGCGTTTTCGCGCGCG; experiment: SPR; settings: 25 °C; highest concentration not stated
[5] = tested on: ACC2 IM (DNA, i motif) TGACCCGCCCCCGCCCCGCCCCTGT; experiment: SPR; settings: 100 mM K+; 20 mM MES, pH 5.5, 25 °C
[6] = tested on: ACC2 G4 (DNA, G4) GGGGCGGGGCGGGGGCGGG; experiment: SPR; settings: 100 mM K+; 50 mM Tris-HCl, pH 7.4, 25 °C
[7] = tested on: RET G4 (DNA, G4) GGGGCGGGGCGGGGGGGGG; experiment: SPR; settings: 100 mM K+; 50 mM Tris-HCl, pH 7.4, 25 °C
[8] = tested on: c-jun IM (DNA, i motif) TAACCCCCTCCCCCTCCCCCCTTTAAT; experiment: SPR; settings: 100 mM K+; 20 mM MES, pH 5.5, 25 °C
[9] = tested on: c-jun G4 (DNA, G4) AAGGGGGGAGGGGGAGGGGGTT; experiment: SPR; settings: 100 mM K+; 50 mM Tris-HCl, pH 7.4, 25 °C
[10] = tested on: kras G4 (DNA, G4) AGGGCGGTGTGGGAAGAGGGAAGAGGGGGAGG; experiment: SPR; settings: 100 mM K+; 50 mM Tris-HCl, pH 7.4, 25 °C
[11] = tested on: RB IM (RB promoter i-motif) (DNA, i motif) GCCGCCCAAAACCCCCCG; experiment: CD melting; settings: 100 mM K+; BPES buffer (pH 5.5 per i-motif experiments); 2 μM DNA; compound concentration not in material
[12] = tested on: RB G4 (RB promoter G-quadruplex) (DNA, G4) CGGGGGGTTTTGGGCGGC; experiment: CD melting; settings: 100 mM K+; 50 mM Tris-HCl, pH 7.4; 2 μM DNA; compound concentration not in material
[13] = tested on: RB IM (RB promoter i-motif) (DNA, i motif) GCCGCCCAAAACCCCCCG; experiment: TO displacement fluorescence; settings: 100 mM K+; BPES buffer, pH 5.5, 25 °C; 1 μM DNA; thiazole orange (TO) displaced
[14] = tested on: RB G4 (RB promoter G-quadruplex) (DNA, G4) CGGGGGGTTTTGGGCGGC; experiment: TO displacement fluorescence; settings: 100 mM K+; 50 mM Tris-HCl, pH 7.4, 25 °C; 1 μM DNA; thiazole orange (TO) displaced
[15] = tested on: RB IM, 5'-biotin (SPR) (DNA, i motif) GCCGCCCAAAACCCCCCG; experiment: SPR; settings: 100 mM K+, 20 mM MES, pH 5.5, 25 °C
[16] = tested on: hairpin (DNA, hairpin) CGCGCGCGTTTTCGCGCGCG; experiment: SPR; settings: buffer for hairpin not stated

Row | KD [1] [µM] | KD [2] [µM] | KD [3] [µM] | KD [4] [µM] | KD [5] [µM] | KD [6] [µM] | KD [7] [µM] | KD [8] [µM] | KD [9] [µM] | KD [10] [µM] | ΔTm [11] [°C] | ΔTm [12] [°C] | DC50 [13] [µM] | DC50 [14] [µM] | KD ([15]; unit not printed in Table S2, μM in text) [µM] | KD ([15]; Table S2 prints 9.24) [µM] | KD [16] [µM] | SMILES
1 | 2.44 | 0.43 ± 0.24 | 2.50 ± 0.65 | > 50 | 41.7 | 53.1 | 30.9 | 27.0 | 43.9 | 32.5 | −10.7 | −6.4 | 3.4 | 2.7 |  |  |  | CN(CCCNc1c2ccccc2nc2ccccc12)CCCNc1c2ccccc2nc2ccccc12
2 | 36.7 |  |  |  |  |  |  |  |  |  |  |  |  |  | 36.7 |  |  | C[n+]1c(/C=C/c2c3ccccc3cc3ccccc23)ccc2ccccc21
3 |  | 18.06 ± 5.28 | 0.50 ± 0.27 |  |  |  |  |  |  |  |  | −9.9 |  |  |  | 13.6 | > 50 | Cc1ccc2nc3ccccc3c(NCCNCCNc3c4ccccc4nc4ccc(C)cc34)c2c1
